Test results from article PMC5037830 (2016).
One block for each molecule: values may come before it.

Assays:
[1] = test system: dsDNA (ds-oligonucleotide, oligonucleotides 1 and 2) (DNA, duplex) AAATTAATATGTATTGTATATAAATTATT/AATAATTTATATACAATACATATTAATTT; assay: UV melting (260 nm); settings: 0.1 M NaCl, 0.01 M MgCl2
[2] = test system: dsDNA (ds-oligonucleotide, oligonucleotides 1 and 2) (DNA, duplex) AAATTAATATGTATTGTATATAAATTATT/AATAATTTATATACAATACATATTAATTT; assay: circular dichroism; settings: Na+ (TBS); TBS pH 7.4, 1 mM EDTA, 37 °C; 2.5 µM compound, 2.5 µM duplex

ΔTm ([1]; derived from two Tm (64.02 ± 0.00, control 64.97 ± 0.20), 15 µM, change called negligible): -0.95 °C
Compound: O=C1Oc2ccccc2C(=O)C1=CNCCCN1CCN(CCCNC=C2C(=O)Oc3ccccc3C2=O)CC1

binding [2]: yes
ΔTm ([1]; derived from two Tm (70.7 ± 0.71, control 64.97 ± 0.20), text says 7, 15 µM, 0.1% DMSO): 5.73 °C
Compound: Nc1c(C(=O)NCCCN2CCN(CCCNC(=O)c3cnc4ccccc4c3N)CC2)cnc2ccccc12

ΔTm ([1]; derived from two Tm (78.00 ± 0.00, control 64.97 ± 0.20), 100 µM): 13.03 °C
Compound: Nc1c2ccccc2nc2ccccc12

ΔTm ([1]; derived from two Tm (64.07 ± 0.14, control 64.97 ± 0.20), 15 µM, change called negligible): -0.90 °C
Compound: CN(CCCNC=C1C(=O)Oc2ccccc2C1=O)CCCNC=C1C(=O)Oc2ccccc2C1=O

ΔTm ([1]; derived from two Tm (64.5 ± 0.71, control 64.97 ± 0.20), 15 µM, change called negligible): -0.47 °C
Compound: CN(CCCNC(=O)c1cnc2ccccc2c1N)CCCNC(=O)c1cnc2ccccc2c1N
